Measurements reported in patent US20240108739A1, “OLIGOMERIC COMPOUNDS BINDING SPECIFICALLY TO PROTEOGLYCANS” (PHI PHARMA SA, priority 2020, published 2024).
Starred links: 1 amine or outer side, 2 acyl side, 3 side chain; linkers in the order of their positions; H or OH if unused. Positions of bridges follow the written chain, without caps; N, C: chain ends. Non-standard residues stand in square brackets, D forms with d. Residues, ends and D or L forms follow the SMILES beside them. Chains are numbered I, II in the order given. No end group written: not given here. ξ: configuration not given here. *: point of attachment. X1 = CC1(C)C(/C=C/C(=C/C=C2\N(CCCS(=O)(=O)O)c3ccc(S(=O)(=O)O)cc3C2(C)C)c2cccc(CCC(=O)NCCN3C(=O)CC(*)C3=O)c2)=Nc2c1cc(Cl)c[n+]2CCCS(=O)(=O)[O-]; X3 = N=c1ccc2c(-c3ccc(C(=O)NCCCCCN4C(=O)CC(*)C4=O)cc3C(=O)O)c3ccc(N)c(S(=O)(=O)O)c3oc-2c1S(=O)(=O)O; X2 = O=C(CCCCCN1C(=O)CC(*)C1=O)NNC(=O)CCCCC1SC[C@H]2NC(=O)N[C@@H]12; NH(CH2CH2O)5CH2CO = O=C(COCCOCCOCCOCCOCCN[*:1])[*:2]; ξIle = CC[C@H](C)C(N)C(=O)O; Orn = NCCC[C@H](N)C(=O)O; AEA = NCCOCC(=O)O

Tests used:
[1] = tested on: CHO-K1 (WT) cells; experiment: Flow cytometry binding of 680RD-labelled PEG variants to CHO cells (Example 4); assay type: cell-based; conditions: 680RD fluorescence, 30 min at 4 °C, BSA 3% + PEG600 2%; FIGS. 4 and 5
Protocol: Tumor cell lines in exponential growth phase were cultured in complete culture medium with 10% FBS and grown in 75 cm^2 cell culture flasks. On the day of the experiment, cells were harvested and transferred in V-bottom culture plates, washed with PBS 1× supplemented with BSA 3% and then incubated with compounds of the present invention coupled with 680RD fluorochrome for 30 min at 4° C. in PBS 1× supplemented with BSA 3% and PEG600 2% at various dilutions (serial dilutions).
After the incubation, cells were washed in PBS 1× supplemented with BSA 3%.
After the incubation, cells were washed in PBS 1× supplemented with 3% BSA and then incubated for at least 15 min at 4° C. with DAPI (Thermo Fisher Scientific) in order to exclude dead cells and samples are directly acquired on a flow cytometer. Data generated on the flow cytometer was analyzed using Flowjo™ 10.6.0.

[2] = tested on: HCT 116 tumor xenograft; experiment: In vivo biodistribution by Optical Imaging in HCT 116 xenografted mice (Example 9); parameters: species or system athymic nude mice
Protocol: For this purpose, HCT 116 cells were subcutaneously inoculated into the shoulder of athymic nude mice, and then the fluorescently-labelled compound was administered intravenously.
Optical Imaging was used to evaluate fluorescent signals in mice 0.5, 1, 3, 8, 24, and 72 hours after the administration of [(51-hS)2KS]2KC-Mal-680RD at 3 different concentrations. Flow cytometry was also used to evaluate the tumor target expression in xenografted mice.
HCT-116 cells were grown in McCoy's 5a medium supplemented with 10% foetal bovine serum, 100 IU/mL penicillin and 100 μg/mL streptomycin. The trypan-blue exclusion test was used to assess cell viability before cells inoculation. An aliquot (10 μL) of cell suspension was mixed with an equal amount of 0.4% trypan blue solution in PBS. 10 μL of the final solution was introduced in a counting chamber (hemocytometer). Viable cells appear round and bright, while damaged cells appear deep blue because of the incorporation of the trypan dye. Cell viability was expressed as % of viable cells over total cells). Cell cultures with viability of less than 70% were discarded.
HCT 116 cells were collected and washed two times with PBS. One million of HCT 116 cells were suspended in 1:1 Matrigel™: McCoy's 5a (total volume 0.15 mL) and then injected subcutaneously into the shoulder of each female mouse of groups A, B, C.
Animals were randomly assigned to the following experimental groups, Table 12.
All animals were dosed once according to Table 12 when the tumors reached approximately 500-600 mm^3. The solutions were injected intravenously via the tail vein at the administration volume of 100 μL. After each injection the tail vein was flushed with 100 μL of sterile saline solution. All animals were individually inspected before the treatment and 0.5, 1, 3, 8, 24, and 72 hours after treatment.
Clinical signs of the animals, such as posture, movement, breath, external body appearance, and any other relevant clinical sign were recorded. Mice of groups A, B, and C were anesthetized under 3-4% Sevoflurane gas anaesthesia (O2 95.0%) and imaged 0.5, 1, 3, 8, 24, and 72 hours post treatments. Mice were irradiated with filtered light of wavelength 675 nm and an image of emission light intensity was collected at 720 nm wavelength. Field of View, fstop, Binning and Exposition Time were determined during experimental setting. Regions of interest (ROIs) were selected by an operator over the acquired supine, dorsal, and side views. The signal intensity within the ROIs was determined automatically by the software. At the end of the experiment the mice were sacrificed and tumors were excised to measure ex vivo the fluorescent signal intensity.

[3] = tested on: CHO-pgsA-745 cells (GAG-deficient mutant); experiment: Flow cytometry binding of biotinylated compounds to CHO cells (Example 3); assay type: cell-based; conditions: 30 min at 4 °C, streptavidin-680RD fluorescence; FIG. 3B
Protocol: (§1) Cell lines in exponential growth phase were cultured in complete culture medium with 10% FBS and grown in 75 cm^2 cell culture flasks. On the day of the experiment, cells were harvested and transferred in V-bottom culture plates, washed with PBS 1× supplemented with BSA 3% and then incubated with (51-hS)2KC-Mal-Biotin, (51-hS)2KS-(51-hS)KC-Mal-Biotin, [(51-hS)2KS]2KK(Biotin) and VAR2-Biotin for 30 min at 4° C. in PBS 1× supplemented with BSA 3% (and eventually PEG600 2%) at various dilutions (serial dilutions).
(§2) After the incubation, cells were washed in PBS 1× supplemented with BSA 3%. For visualization, cells were incubated for 15 min at 4° C. with streptavidin coupled to 680RD fluorochrome. After the incubation, cells were washed in PBS 1× supplemented with 3% BSA and then incubated for at least 15 min at 4° C. with 4′,6-diamidino-2-phenylindole (DAPI) (Thermo Fisher Scientific) in order to exclude dead cells. Samples were directly applied to a flow cytometer. Data generated on the flow cytometer was analyzed using Flowjo™ 10.6.0.

[4] = tested on: CHO-K1 cells (wild type, GAG present); experiment: as above; assay type: cell-based; conditions: 30 min at 4 °C, streptavidin-680RD fluorescence; FIG. 3A
Protocol: as §1, §2

[5] = background statement; cited from earlier work
[6] = tested on: HCT-116 cells (colon carcinoma); experiment: Internalization in adherent cells, Trypan Blue quenching flow cytometry (Example 6); assay type: cell-based; conditions: 200 nM, 37 °C, FIG. 8
Protocol: Adherent cell lines in exponential growth phase were cultured in complete culture medium with 10% FBS and grown in flat-bottom culture plates. On the day of the experiment, cells were washed with culture medium supplemented with 3% BSA (Sigma-Aldrich) and then incubated with peptides coupled with A488 fluorochrome for various timepoints (from 5 to 160 min) at a single concentration or at various dilutions (serial dilutions) at a determined timepoint at 37° C. in the corresponding culture medium supplemented with 3% BSA. After the incubation, cells were washed in PBS 1× and detached using trypsin. Following trypsinization, cells were washed in PBS 1× supplemented with 3% BSA and then incubated for at least 15 min at 4° C. with DAPI (Thermo Fisher Scientific) in order to exclude dead cells. Right before acquisition on a flow cytometer, samples were divided in two. The first series of samples was acquired directly on a flow cytometer whereas the second series was supplemented with Trypan Blue in order to observe the internal fluorescence only. The percentage of internalization was further determined.
Fluorescence geometric mean of samples is standardised by subtracting fluorescence geometric mean of negative control (no compound) and the addition of 1.

[7] = tested on: chondroitin-4-sulfate (C4S); experiment: ELISA binding to purified GAGs (Example 1); conditions: SAV-HRP/TMB absorbance 450 nm, binding at pH 6.4 for 1 hour at 37 °C, FIG. 1
Protocol: (§3) ELISA plates were coated with various purified GAGs (Sigma, AMBIO) in PBS pH 7.4 for 2 hours at 37° C. Plates were blocked overnight at 4° C. with 200 μl of PBS pH 7.4, Tween 0.05%+BSA 3%+PEG400 2%, then washed twice with fresh buffer TSCM pH 6.4 ((Tris 20 mM, NaCl 150 mM, BSA 1%, Tween 0.05%, 2 mM MgCl2, 2 mM CaCl2). Binding of the different peptides at serial dilution was conducted in TSCMP (TSCM+2% (w/v) PEG 600) pH 6.4 for 1 hour at 37° C. (100 ul per well). Plates were washed three times with fresh TSCM pH 6.4 (200 ul per well) and SAV-HRP was added at a dilution of 1/8000 (100 ul per well) for 20 min at room temperature. Following 3 washes with PBS pH 7.4, 3,3′,5,5′-tetramethylbenzidine (TMB) substrate was added for 10 min (100 ul per well), protected from light. The reaction was stopped by addition of 100 μl of 1 M H2SO4 and the absorbance at 450 nm was measured.
(§4) The GAGs tested in this example were: C4Str: chondroitin-4-sulfate(tracheal); C4Sns: chondroitin-4-sulfate (nasal); CSPG: chondroitin sulfate proteoglycan; C6S: chondroitin-6-sulfate; HA: hyaluronic acid; HEP: heparin; HS: heparan sulfate; DS: dermatan sulfate; PBS: PBS negative control.

[8] = tested on: chondroitin-6-sulfate (C6S); experiment: ELISA binding to purified GAGs (Example 1); conditions: SAV-HRP/TMB absorbance 450 nm, binding at pH 6.4 for 1 hour at 37 °C, FIG. 1
Protocol: as §3, §4

[(51-hS)2K(PEG1)]2KC-Mal-680RD: Four copies of SEQ ID NO:37, structure comprising SEQ ID NO:7 (n is 1), L-Cys conjugated to IRDye 680RD Maleimide (chain 1 RYF[dV]RI[Orn]YR; chain 2 [dH]SK[AEA]KC(IRDye 680RD maleimide); also: four peptide copies on branched Lys scaffold, further copies not in the chains)
binding on CHO-K1 cells compared with [(51-hS)2KS]2KC-Mal-680RD [1]: increased binding

I: Ac-RYF[dV]R[ξIle][Orn]YR[dH]SKSKC(X1)-NH2 / II: Ac-RYF[dV]RI[Orn]YR[dH]SKS / III: Ac-RYF[dV]RI[Orn]YR[dH]S / IV: Ac-RYF[dV]RI[Orn]YR[dH]S (amide I:12-III:C, I:14-II:C, II:12-IV:C) [[(51-hS)2KS]2KC-Mal-680RD]
tumor signal of group B relative to other groups ([2]; group B 20 nmol/mouse i.v. vs 4 nmol/mouse, dependent on dose and on blocking compound): higher tumor signal
tumor to muscle ratio of fluorescence signal ([2]; groups A and B, all imaging times, FIGS. 12 and 13): almost two-fold
fluorescence signal (Average Radiant Efficiency) in the abdominal region, mainly liver and intestine ([2]; groups A, B, C (4, 20, 4 + 16 unlabeled nmol/mouse i.v.), imaging 0.5-72 h, independent of dose or blocking compound): strong signal
fluorescence signal (Average Radiant Efficiency) in the tumor ([2]; tumor of all groups, mainly groups A and B, i.v., imaging 0.5-72 h): presence of a signal

CC[C@H](C)C(NC(=O)[C@H](CCCNC(=N)N)NC(=O)[C@H](NC(=O)[C@H](Cc1ccccc1)NC(=O)[C@H](Cc1ccc(O)cc1)NC(=O)[C@H](CCCNC(=N)N)NC(C)=O)C(C)C)C(=O)N[C@@H](CCCN)C(=O)N[C@@H](Cc1ccc(O)cc1)C(=O)N[C@@H](CCCNC(=N)N)C(=O)N[C@H](Cc1c[nH]cn1)C(=O)N[C@@H](CO)C(=O)N[C@@H](CCCCNC(=O)[C@H](CO)NC(=O)[C@@H](Cc1c[nH]cn1)NC(=O)[C@H](CCCNC(=N)N)NC(=O)[C@H](Cc1ccc(O)cc1)NC(=O)[C@H](CCCN)NC(=O)[C@@H](NC(=O)[C@H](CCCNC(=N)N)NC(=O)[C@H](NC(=O)[C@H](Cc1ccccc1)NC(=O)[C@H](Cc1ccc(O)cc1)NC(=O)[C@H](CCCNC(=N)N)NC(C)=O)C(C)C)[C@@H](C)CC)C(=O)N[C@@H](CO)C(=O)N[C@@H](CCCCNC(=O)[C@H](CO)NC(=O)[C@@H](Cc1c[nH]cn1)NC(=O)[C@H](CCCNC(=N)N)NC(=O)[C@H](Cc1ccc(O)cc1)NC(=O)[C@H](CCCN)NC(=O)[C@@H](NC(=O)[C@H](CCCNC(=N)N)NC(=O)[C@H](NC(=O)[C@H](Cc1ccccc1)NC(=O)[C@H](Cc1ccc(O)cc1)NC(=O)[C@H](CCCNC(=N)N)NC(C)=O)C(C)C)[C@@H](C)CC)C(=O)N[C@@H](CSC1CC(=O)N(CCCCCC(=O)NNC(=O)CCCCC2SC[C@H]3NC(=O)N[C@@H]23)C1=O)C(N)=O (some centres unmarked) [(51-hS)2KS-(51-hS)KC-Mal-Biotin] (I: Ac-RYF[dV]R[ξIle][Orn]YR[dH]SKSKC(X2)-NH2 / II: Ac-RYF[dV]RI[Orn]YR[dH]S / III: Ac-RYF[dV]RI[Orn]YR[dH]S; amide I:12-II:C, I:14-III:C)
reduction of fluorescence on CHO-pgsA-745 as compared with fluorescence on CHO-K1 cells [3]: 209.9 fold
binding on CHO-K1 cells, times better than (51-hS)2KC-Mal-Biotin [4]: 17.9 ×

CCc1c2c(nc3ccc(O)cc13)-c1cc3c(c(=O)n1C2)COC(=O)[C@]3(O)CC [SN-38]
activity relative to irinotecan [5]: 1000 times
potency relative to irinotecan in in vitro cytotoxicity assays [5]: 2- to 2000 fold

[(51-hS)2K(PEG5)]2KC-Mal-680RD: Four copies of SEQ ID NO:37, structure comprising SEQ ID NO:7 (n is 5), L-Cys conjugated to IRDye 680RD Maleimide (chain 1 RYF[dV]RI[Orn]YR; chain 2 [dH]SK[NH(CH2CH2O)5CH2CO]KC(IRDye 680RD maleimide); also: four peptide copies on branched Lys scaffold, further copies not in the chains)
binding on CHO-K1 cells compared with [(51-hS)2KS]2KC-Mal-680RD [1]: increased binding

I: Ac-RYF[dV]R[ξIle][Orn]YR[dH]SKSKC(X3)-NH2 / II: Ac-RYF[dV]RI[Orn]YR[dH]SKS / III: Ac-RYF[dV]RI[Orn]YR[dH]S / IV: Ac-RYF[dV]RI[Orn]YR[dH]S (amide I:12-III:C, I:14-II:C, II:12-IV:C) [[(51-hS)2KS]2KC-Mal-Alexa488]
extent of internalisation in HCT-116 cells ([6]; time course up to 160 min): 85%
time after which 70% is internalised in HCT-116 cells [6]: 40 min

RYFvRIOYR (RYF[dV]RI[Orn]YR) [SEQ ID NO:37, Peptide moiety 51]
binding affinity to C4S [7]: binds specifically
binding affinity to C6S [8]: binds specifically
